Results reported in patent US10124004B2, “Pyrido[3,4-d]pyrimidine derivative and pharmaceutically acceptable salt thereof” (Teijin Pharma Limited, priority 2015, dated 2018).

Key:
CDK2/cyclin A2 = target: T1, CDK2/cyclin A2 (Homo sapiens, UniProt P24941); assay: Human CDK2/cyclin A2 inhibitory activity (QS S Assist CDK2/Cyclin A2_FP Kit, IMAP fluorescence polarization); type: biochemical; conditions: 50% inhibitory concentration against CDK2/cyclin A2, given as class symbol
T1 construct: purchased Carna Biosciences, Inc. QS S Assist CDK2/Cyclin A2_FP Kit
In short: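 Kinase activity read as fluorescence polarization (485/535 nm) after phosphorylated fluorescent substrate binds IMAP reagent (30 min, RT, dark). Enzyme (2.5 ng/well) reacted 60 min at RT with ATP/substrate/metal in HEPES pH 7.4 buffer with Tween 20 and DTT; no-enzyme wells define 0% activity; IC50 by curve fit.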

CDK4/cyclin D3 = target: T2, CDK4/cyclin D3 (Homo sapiens, UniProt P11802); assay: Human CDK4/cyclin D3 inhibitory activity (QS S Assist CDK4/Cyclin D3_FP Kit, IMAP fluorescence polarization); type: biochemical; conditions: 50% inhibitory concentration against CDK4/cyclin D3, given as class symbol
T2 construct: purchased Carna Biosciences, Inc. QS S Assist CDK4/Cyclin D3_FP Kit
T2 sequence (P11802 whole entry): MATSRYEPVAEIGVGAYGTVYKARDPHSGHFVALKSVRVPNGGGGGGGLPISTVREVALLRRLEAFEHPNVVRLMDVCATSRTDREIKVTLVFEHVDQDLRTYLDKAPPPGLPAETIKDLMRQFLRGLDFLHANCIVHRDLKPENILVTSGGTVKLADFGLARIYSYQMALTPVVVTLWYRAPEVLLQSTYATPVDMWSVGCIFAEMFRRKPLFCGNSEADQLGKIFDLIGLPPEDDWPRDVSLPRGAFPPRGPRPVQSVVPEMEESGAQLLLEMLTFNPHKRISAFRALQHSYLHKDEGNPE
T2 sequence (P30281 whole entry partner): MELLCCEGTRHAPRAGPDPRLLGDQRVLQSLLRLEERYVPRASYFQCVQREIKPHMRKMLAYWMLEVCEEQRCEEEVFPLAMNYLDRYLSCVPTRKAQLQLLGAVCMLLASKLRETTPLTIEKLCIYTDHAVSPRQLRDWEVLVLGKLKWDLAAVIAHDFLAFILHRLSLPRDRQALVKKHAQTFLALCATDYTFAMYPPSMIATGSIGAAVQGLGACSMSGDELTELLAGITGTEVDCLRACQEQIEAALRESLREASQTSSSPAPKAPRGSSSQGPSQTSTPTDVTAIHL
In short: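 IMAP fluorescence polarization kit: CDK4/cyclin D3 at 12.5-25 ng/well with kit ATP/substrate/metal mix in 20 mM HEPES pH 7.4, 0.01% Tween20, 2 mM DTT, 45 min at room temperature. FP read at 485/535 nm after 30 min binding; IC50 from dose-response fit of percent inhibition versus enzyme and no-enzyme controls.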

Row | SMILES | IC50 (CDK2/cyclin A2) | IC50 (CDK4/cyclin D3)
1 | COC[C@@H](C)Nc1nc([C@@H](C)OC)cc2cnc(Nc3ccc(CN4CCN(CCO)CC4)cn3)nc12 [Compound 916] | ≥ 100 nM | < 10 nM
2 | CO[C@H](C)c1cc2cnc(Nc3ccc(CN4CCN(CCO)CC4)cn3)nc2c(N[C@H]2CC[C@H](O)CC2)n1 [Compound 917] | ≥ 100 nM | < 10 nM
3 | CO[C@H](C)c1cc2cnc(Nc3ccc(CN4CCN(CCO)CC4)cn3)nc2c(NCC2CCOCC2)n1 [Compound 918] | ≥ 100 nM | < 10 nM
4 | CCNc1nc([C@@H](C)OC)cc2cnc(Nc3ccc(N4CCNCC4)cn3)nc12 [Compound 919] | ≥ 100 nM | < 10 nM
5 | CCCNc1nc([C@@H](C)OC)cc2cnc(Nc3ccc(N4CCNCC4)cn3)nc12 [Compound 920] | ≥ 100 nM | < 10 nM
6 | CCCNc1nc([C@@H](C)O)cc2cnc(Nc3ccc(N4CCNCC4)cn3)nc12 [Compound 921] | ≥ 100 nM | < 10 nM
7 | CCCCNc1nc([C@@H](C)O)cc2cnc(Nc3ccc(N4CCNCC4)cn3)nc12 [Compound 922] | ≥ 100 nM | < 10 nM
8 | CC(C)Nc1nc([C@@H](C)O)cc2cnc(Nc3ccc(N4CC(C)(C)NCC4=O)cn3)nc12 [Compound 923] | ≥ 100 nM | < 10 nM
9 | Cc1nc(Nc2ncc3cc([C@@H](C)O)nc(NC(C)C)c3n2)ccc1N1CCNCC1 [Compound 924] | ≥ 100 nM | < 10 nM
10 | CO[C@H](C)c1cc2cnc(Nc3ccc(N4CCNCC4)c(C)n3)nc2c(NC(C)C)n1 [Compound 925] | ≥ 100 nM | < 10 nM
11 | CC(C)Nc1nc([C@@H](C)O)cc2cnc(Nc3ccc(N4CCC(O)CC4=O)cn3)nc12 (some centres unmarked) [Compound 926] | ≥ 100 nM | < 10 nM
12 | CO[C@H](C)c1cc2cnc(Nc3ccc(OC4CCNCC4)cn3)nc2c(NCC2CCOCC2)n1 [Compound 927] | ≥ 100 nM | < 10 nM
13 | CO[C@H](C)c1cc2cnc(Nc3ccc(CN4CCNCC4)cn3)nc2c(NC(C)C2CCOCC2)n1 (some centres unmarked) [Compound 928] | ≥ 100 nM | < 10 nM
14 | CNCCN1CCc2nc(Nc3ncc4cc([C@@H](C)O)nc(NC(C)C)c4n3)ccc2C1 [Compound 930] | ≥ 100 nM | < 10 nM
15 | CC(C)Nc1nc([C@@H](C)O)cc2cnc(Nc3ccc4c(n3)CCN(C(=O)[C@@H](N)C(C)C)C4)nc12 [Compound 931] | ≥ 100 nM | < 10 nM
16 | CC(C)Nc1nc([C@@H](C)O)cc2cnc(Nc3ccc4c(n3)CCN(C(=O)C3CCNCC3)C4)nc12 [Compound 932] | ≥ 100 nM | < 10 nM

The next lines start with the values.

Row | IC50 (CDK2/cyclin A2) | IC50 (CDK4/cyclin D3) | SMILES
17 | ≥ 100 nM | < 10 nM | CNC(=O)N1CCc2nc(Nc3ncc4cc([C@@H](C)O)nc(NC(C)C)c4n3)ccc2C1 [Compound 933]
18 | ≥ 100 nM | < 10 nM | CC(C)Nc1nc([C@@H](C)O)cc2cnc(Nc3ccc4c(n3)CCN(S(C)(=O)=O)C4)nc12 [Compound 934]
19 | ≥ 100 nM | 10 to 100 nM | CC(C)Nc1nc([C@@H](C)O)cc2cnc(Nc3ccc4c(n3)CCN(S(=O)(=O)N(C)C)C4)nc12 [Compound 935]
20 | ≥ 100 nM | < 10 nM | CC(C)Nc1nc([C@@H](C)O)cc2cnc(Nc3ccc(N4CCN(C(C)C#N)CC4=O)cn3)nc12 (some centres unmarked) [Compound 936]
21 | ≥ 100 nM | < 10 nM | CC(C)Nc1nc([C@@H](C)O)cc2cnc(Nc3ccc(N4CCN(CC(N)=O)CC4)nn3)nc12 [Compound 937]
22 | ≥ 100 nM | < 10 nM | CCCNc1nc([C@@H](C)O)cc2cnc(Nc3ccc4c(n3)CCNC4)nc12 [Compound 944]
23 | ≥ 100 nM | < 10 nM | CCCNc1nc(C2(C)COC2)cc2cnc(Nc3ccc(N4CCNCC4)nn3)nc12 [Compound 945]
24 | ≥ 100 nM | < 10 nM | CCCNc1nc(C2CCOC2)cc2cnc(Nc3ccc(N4CCNCC4)nn3)nc12 (centres unmarked) [Compound 946]
25 | ≥ 100 nM | < 10 nM | CCCNc1nc(C2(C)COC2)cc2cnc(Nc3ccc4c(n3)CCNC4)nc12 [Compound 947]
